# Results published in patent publication US11696938B2, “Human cancer cell metastasis inhibitory agent and human cancer cell determination agent” (priority 2017, dated 2023).
# What was measured:
# OV2944 cells [1] = assay: Cell migration assay; type: cell-based, mouse; conditions: 5 μM; versus p1 and no peptide
# Description: The plasmid vector pDsRed2-C1 (Clontech), which expresses a fluorescent protein (DsRed2), was transfected into cells. […] The observation was carried out for 12 to 37 cells. Statistical analysis was carried out by unpaired Student t-test in order to analyze a significant difference.
# An experiment was carried out in the same manner as in Experimental Example 8-1 except that no partial peptide was added.
# OV2944 cells [2] = assay: Cell invasion assay (Matrigel Invasion Chamber); type: cell-based, mouse
# Description: Cell invasion was analyzed using a BD BioCoat (registered trademark) Matrigel Invasion Chamber (Becton, Dickinson and Company). First, a certain amount of cells (about 1×10^5 cells/well) were treated with 2 μM, 8 μM, or 20 μM mouse dicalcin at room temperature for 20 minutes.
# The treated cells were washed by centrifugation treatment, and then plated in the upper chamber of a transwell preliminarily coated with Matrigel, followed by performing culture using DMEM (+10% FBS) as a medium.
# About 16 hours later, the invading cells that had migrated into the lower chamber were fixed using 4% paraformaldehyde/phosphate buffer at room temperature for 10 minutes, and then stained with crystal violet, followed by excision of the membrane, embedding on a slide, and counting of the cell number.
# OV2944 cells [3] = assay: Cell binding experiment (fluorescently labeled protein/peptide, confocal microscope); parameters: species or system mouse
# Description: The OV2944-HM-1 cell line (which may be referred to as “OV2944 cells” or, simply, “cells”), which is a commonly used cell line, was used. OV2944 cells were obtained from RIKEN BioResource Center (Cell No. RCB1483), and cultured in DMEM medium (+10% FBS) according to a conventional method.
# Cultured cells were fixed on a glass plate (4% paraformaldehyde/phosphate buffer, room temperature, 10 minutes), and treated with sheep serum. Thereafter, mouse dicalcin (5 μM) fluorescently labeled with tetramethylrhodamine (TMR) was reacted with the cells in the presence of 1 mM CaCl2 (4° C., overnight). After washing with TBS buffer, analysis was carried out using a confocal microscope (Carl Zeiss). Further, cell nuclei were stained with DAPI.
# An experiment was carried out in the same manner as in Experimental Example 1-1 except that the reaction was carried out in the presence of 1 mM EGTA (which may be referred to as “in the absence of calcium”).
# An experiment was carried out in the same manner as in Experimental Example 1-1 except that immunostaining was carried out using an anti-mouse dicalcin antibody (Catalog No. MAB5167, R&D Systems) as a primary antibody, and an Alexa Fluor (registered trademark) 594-labeled anti-rat IgG antibody (Catalog No. A11007, Invitrogen) as a secondary antibody.
# An experiment was carried out in the same manner as in Experimental Example 1-1 except that each of partial peptides p1 to p7 (5 μM) fluorescently labeled with rhodamine was used.
# [4] = test system: GM1b on the plasma membrane of OV2944 cells; assay: GM1b inhibition assay in relation to binding of partial peptide p6 to OV2944 cells; parameters: species or system mouse; conditions: 5 μM TMR-labeled p6
# Description: Cultured OV2944 cells were fixed on a glass plate (4% paraformaldehyde/phosphate buffer, room temperature, 10 minutes), and treated with sheep serum. […] After washing, analysis was carried out using a confocal microscope (Carl Zeiss).
# An experiment was carried out in the same manner as in Experimental Example 18-1 except that GM1b was absent.
# Further, an experiment was carried out in the same manner as in Experimental Example 18-1 and Experimental Example 18-2 for cases where GM1b was used alone at a concentration of 0, 10, or 100 μM, where GT1c was used alone at a concentration of 100 μM, and where GM1b and GT1c were used in combination at a concentration of 100 μM each.
# [5] = Glycolipid sugar chain array binding experiment; conditions: 5 μM fluorescently labeled, 4° C. overnight
# Erk1/2 = assay: Suppression of Erk1/2 signaling (Western blotting, pErk/Erk); type: cell-based, mouse
# From the text: The OV2944 cells were extracted and sonicated, and then analyzed for the activity of Erk1/2 by Western blotting. An antibody (Cell Signaling) against Erk1/2 protein in the phosphorylated state (that is, the activated state) (pErk1/2), or an antibody (Santa Cruz) against total Erk1/2 protein including the protein in the phosphorylated state and the protein in the dephosphorylated state (Erk1/2), was used therefor. The ratio between pErk1/2 and Erk1/2 (pErk/Erk) in the Western blot image was calculated, and the data were normalized by taking the value at time 0 as 1.
# OV2944 cells [6] = assay: Analysis of survival after cell transfer (Kaplan Meier); type: in vivo, mouse
# Description: (§1) The purified OV2944 cells expressing the fluorescent protein tdTomato were transferred into the abdominal cavity of mice (B6C3F1 strain, 9 weeks old, female, CLEA Japan, Inc.) (1×10^5 cells/mouse). […] On Day 21, the abdominal organs were removed, and OV2944 cells expressing the fluorescent protein tdTomato in the liver were observed using a fluorescence stereomicroscope OV110 (Olympus Corporation).
# Intraperitoneal injection was carried out in the same manner as in Experimental Example 13-1 and Experimental Example 13-2, and survival analysis was carried out thereafter to provide Experimental Example 14-1 and Experimental Example 14-2. For the survival curve according to the Kaplan Meier method, a significant difference was analyzed by log-rank test.
# [7] = test system: OV2944 cells expressing the fluorescent protein tdTomato; assay: Observation of metastasis to liver after intraperitoneal cell transfer; type: in vivo, mouse; conditions: 3 nmoles/two days, Day 21, versus control peptide p1
# Description: The plasmid vector ptdTomato-C1 (Clontech), which expresses the fluorescent protein tdTomato, was transfected into OV2944 cells, and, 24 to 48 hours later, the cells were suspended in phosphate buffer. Using a flow cytometer (FACS Aria, BD Biosciences), the OV2944 cells expressing the fluorescent protein tdTomato shown in FIG. 13A to FIG. 13C were purified.
# as §1
# FIG. 15-1B focuses on cell colonies. […] The number of colonies was counted, and a significant difference was analyzed by unpaired Student t-test.
substance,measurement,setting,value
"partial peptide of mouse dicalcin, SEQ ID NO: 17, QLDFQEFLNLI (listed as Mus musculus) [p6]",cell migration (migration distance),OV2944 cells [1],suppresses migration of the cells
same,"cell invasion, ranking of suppression","OV2944 cells [2]; 8 μM each, versus 10 μM BSA",suppresses cell invasion at the highest level
same,"cell invasion, concentration dependence","OV2944 cells [2]; 0.2, 0.8, 2, 8, 20 μM",suppressed cell invasion in a concentration-dependent manner
same,cell-binding ability (fluorescence intensity),"OV2944 cells [3]; 5 μM rhodamine-labeled partial peptides, ranking",highest cell-binding ability
same,site of binding on cells,"OV2944 cells [3]; 5 μM, CD44 as plasma membrane control",binds to the plasma membranes of cells
same,binding to OV2944 cell / plasma membrane in presence of GM1b,"[4]; GM1b in the medium (10, 100 μM)",remarkably decreased
same,binding ability to OV2944 cells in presence of GT1c,[4]; GT1c 100 μM,did not change
same,target molecule candidate by binding to glycolipid sugar chains,[5],GM1b ganglioside was suggested
same,Erk1/2 activity (pErk/Erk),"Erk1/2; 5 μM p6 alone (absence of GM1b), 0-30 minutes",suppresses the Erk1/2 activity
same,Erk1/2 activity (pErk/Erk) with GM1b present,Erk1/2; p6 and GM1b present,disappearance of the Erk-suppressing action
same,increase in average number of days of survival,OV2944 cells [6]; Experimental Example 14-1 relative to 14-2 (p1),21%
same,average number of days of survival,"OV2944 cells [6]; intraperitoneal, 3 nmoles/two days",38.5 days
same,survival rate of mice,"OV2944 cells [6]; intraperitoneal, 3 nmoles/two days, versus control peptide p1, log-rank test",significantly suppresses a decrease in the survival rate
same,number of colonies in the liver,[7],significantly smaller
